Structures are written as SMILES. Like-named read-outs stand apart in the source and are kept apart here. A value given as a limit tells only on which side of the number the result lay.

The values below come from US20150141381A1, “TETRACYCLINE COMPOUNDS HAVING TARGET THERAPEUTIC ACTIVITIES” (Paratek Pharmaceuticals, Inc., priority 2001, published 2015).

Assay [1] concerns S. aureus RN450. Put plainly: In Vitro Anti-Bacterial Activity Assay (MIC), gram positive. It is filed as cell-based. The conditions noted are these: for MIC: Staphylococcus aureus, RN450, 18 h.
Assay [2] has as its system E. coli mL308 225. The assay can be described thus: In Vitro Anti-Bacterial Activity Assay (MIC), gram negative. The conditions noted are these: for MIC: Escherichia coli, ML308225, 18 h. It is filed as cell-based.
Setting [3] is: MIC class, Table 3, read-out: Antibiotic Activity Gram +.
The mark [4] stands for this setting: MIC class, Table 3, read-out: Antibiotic Activity Gram −.
[5] abbreviates: gram positive bacteria, read-out: Antibiotic Activity Gram + (MIC).
[6] abbreviates: gram negative bacteria, read-out: Antibiotic Activity Gram − (MIC).
Setting [7] is: MIC class, Table 3 (Continued), read-out: Gram+ activity.
Where [8] appears, read: MIC class, Table 3 (Continued), read-out: Gram− activity.

As to `CN(C)[C@@H]1C(O)=C(C(N)=O)C(=O)[C@@]2(O)C(O)=C3C(=O)c4c(ccc(NC(=O)Nc5cccc6ccccc56)c4O)C[C@H]3C[C@@H]12` [AU], the values for the MIC in assay [1] (setting [3]) and in assay [2] (setting [4]) were less than 4 µg/mL and greater than 4 µg/mL, respectively.
With `CN(C)c1cc(NCc2ccc(OC(F)(F)F)cc2)c(O)c2c1C[C@H]1C[C@H]3[C@H](N(C)C)C(O)=C(C(N)=O)C(=O)[C@@]3(O)C(O)=C1C2=O`, the results for the MIC in assay [1] (setting [5]) and in assay [2] (setting [6]) were less than 4 µg/mL and greater than 4 µg/mL, respectively.
Take `CC(=O)c1cc(C(C)(C)C)c(O)c2c1C[C@H]1C[C@H]3[C@H](N(C)C)C(O)=C(C(N)=O)C(=O)[C@@]3(O)C(O)=C1C2=O`: the MIC in assay [1] (setting [5]) and in assay [2] (setting [6]) was less than 4 µg/mL each time.
Regarding `CC(=O)CCC(=O)Nc1ccc2c(c1O)C(=O)C1=C(O)[C@]3(O)C(=O)C(C(N)=O)=C(O)[C@@H](N(C)C)[C@@H]3C[C@@H]1C2`, the MIC in assay [1] (setting [5]) and in assay [2] (setting [6]) was greater than 4 µg/mL throughout.
Regarding `CN(C)c1cc(-c2cccc(N)c2)c(O)c2c1C[C@H]1C[C@H]3[C@H](N(C)C)C(O)=C(C(N)=O)C(=O)[C@@]3(O)C(O)=C1C2=O` [AH], the MIC in assay [1] (setting [3]) was less than 4 µg/mL; in assay [2] (setting [4]), greater than 4 µg/mL.
Taken in the same sequence, the figures for `CN(C)[C@@H]1C(O)=C(C(N)=O)C(=O)[C@@]2(O)C(O)=C3C(=O)c4c(O)ccc(CNCc5ccc[nH]5)c4C[C@H]3C[C@@H]12` [KH] were less than 4 µg/mL and less than 4 µg/mL.
With `CCC(C)CNCc1ccc(O)c2c1C[C@H]1C[C@H]3[C@H](N(C)C)C(O)=C(C(N)=O)C(=O)[C@@]3(O)C(O)=C1C2=O` (stereo partly drawn) [KE], the MIC in assay [1] (setting [3]) and in assay [2] (setting [4]) was less than 4 µg/mL each time.
Take `CN(C)CCN(Cc1ccccc1)Cc1ccc(-c2cc(N(C)C)c3c(c2O)C(=O)C2=C(O)[C@]4(O)C(=O)C(C(N)=O)=C(O)[C@@H](N(C)C)[C@@H]4C[C@@H]2C3)o1`: the MIC in assay [1] (setting [5]) and in assay [2] (setting [6]) was greater than 4 µg/mL throughout.
Regarding `COC(=O)/C=C/c1ccc(O)c2c1C[C@H]1C[C@H]3[C@H](N(C)C)C(O)=C(C(N)=O)C(=O)[C@@]3(O)C(O)=C1C2=O` [NJ], the figures for the MIC in assay [1] (setting [3]) and in assay [2] (setting [4]) were less than 4 µg/mL and greater than 4 µg/mL, respectively.
Taken in the same sequence, the figures for `CN(C)[C@@H]1C(O)=C(C(N)=O)C(=O)[C@@]2(O)C(O)=C3C(=O)c4c(O)ccc(C=CC#N)c4C[C@H]3C[C@@H]12` [NO] were less than 4 µg/mL and less than 4 µg/mL.
Consider `COc1ccc(-c2ccc(O)c3c2C[C@H]2C[C@H]4[C@H](N(C)C)C(O)=C(C(N)=O)C(=O)[C@@]4(O)C(O)=C2C3=O)cc1CN(C)C` [IT], for which the MIC in assay [1] (setting [3]) and in assay [2] (setting [4]) was less than 4 µg/mL each time.
As to `CN(C)c1cc(CNCCC(F)(F)F)c(O)c2c1C[C@H]1C[C@H]3[C@H](N(C)C)C(O)=C(C(N)=O)C(=O)[C@@]3(O)C(O)=C1C2=O` [drawing 3671], the MIC in assay [1] (setting [5]) and in assay [2] (setting [6]) was less than 4 µg/mL in each case.
Take `COc1ccc(CNCCF)cc1-c1ccc(O)c2c1C[C@H]1C[C@H]3[C@H](N(C)C)C(O)=C(C(N)=O)C(=O)[C@@]3(O)C(O)=C1C2=O`: the MIC in assay [1] (setting [5]) was less than 4 µg/mL; in assay [2] (read-out: Antibiotic Activity Gram − (MIC)), greater than 4 µg/mL.
On to `CN(C)c1cc(NCc2cc[nH]n2)c(O)c2c1C[C@H]1C[C@H]3[C@H](N(C)C)C(O)=C(C(N)=O)C(=O)[C@@]3(O)C(O)=C1C2=O`, for which the MIC in assay [1] (setting [5]) and in assay [2] (setting [6]) was greater than 4 µg/mL each time.
Take `COc1ccc(CN2CCOCC2)cc1-c1ccc(O)c2c1C[C@H]1C[C@H]3[C@H](N(C)C)C(O)=C(C(N)=O)C(=O)[C@@]3(O)C(O)=C1C2=O` [BV]: the MIC was less than 4 µg/mL in assay [1] (setting [3]) and greater than 4 µg/mL in assay [2] (setting [4]).
As to `COC(=O)c1ccc(-c2ccc(O)c3c2C[C@H]2C[C@H]4[C@H](N(C)C)C(O)=C(C(N)=O)C(=O)[C@@]4(O)C(O)=C2C3=O)cc1`, the MIC in assay [1] (setting [7]) and in assay [2] (setting [8]) was less than 4 µg/mL each time.
Consider `CN(C)c1ccc(O)c2c1C[C@H]1C[C@H]3[C@H]([N+](C)(C)C)C(O)=C(C(N)=O)C(=O)[C@@]3(O)C(O)=C1C2=O`, for which the MIC in assay [1] (setting [5]) is less than 4 µg/mL; in assay [2] (setting [6]), greater than 4 µg/mL.
Consider `CN(C)c1cc(CNC(=O)OCC(Cl)(Cl)Cl)c(O)c2c1C[C@H]1C[C@H]3[C@H](N(C)C)C(O)=C(C(N)=O)C(=O)[C@@]3(O)C(O)=C1C2=O` [FI], for which the figures for the MIC in assay [1] (setting [3]) and in assay [2] (setting [4]) were less than 4 µg/mL and greater than 4 µg/mL, respectively.
`CC(=O)c1cc(CNCC(C)(C)C)c(O)c2c1C[C@H]1C[C@H]3[C@H](N(C)C)C(O)=C(C(N)=O)C(=O)[C@@]3(O)C(O)=C1C2=O`: the MIC in assay [1] (setting [5]) was less than 4 µg/mL; in assay [2] (setting [6]) it was greater than 4 µg/mL.
With `CN(C)[C@@H]1C(O)=C(C(N)=O)C(=O)[C@@]2(O)C(O)=C3C(=O)c4c(O)c(CN)cc(-c5ccc(F)cc5)c4C[C@H]3C[C@@H]12` [DF], the results for the MIC in assay [1] (setting [3]) and in assay [2] (setting [4]) were less than 4 µg/mL and greater than 4 µg/mL, respectively.
Consider `CN(C)C1C(O)=C(C(N)=O)C(=O)[C@@]2(O)C(O)=C3C(=O)c4c(O)ccc(-c5ccc(NC(=O)Nc6ccc(OC(F)(F)F)cc6)cc5)c4C[C@H]3C[C@@H]12` (stereo partly drawn) [GV], for which the MIC in assay [1] (setting [3]) and in assay [2] (setting [4]) was greater than 4 µg/mL in each case.
On to `CC1c2ccc(C3C=CCC3)c(O)c2C(=O)C2=C(O)[C@]3(O)C(=O)C(C(N)=O)=C(O)[C@@H](N(C)C)[C@@H]3[C@@H](O)[C@@H]21` (stereo partly drawn), for which the MIC in assay [1] (setting [7]) and in assay [2] (setting [8]) was less than 4 µg/mL in each case.
Regarding `CC(C)c1ccc(CNc2cc(N(C)C)c3c(c2O)C(=O)C2=C(O)[C@]4(O)C(=O)C(C(N)=O)=C(O)[C@@H](N(C)C)[C@@H]4C[C@@H]2C3)cc1` [NN], the MIC in assay [1] (setting [3]) is less than 4 µg/mL; in assay [2] (setting [4]), greater than 4 µg/mL.
Taken in the same sequence, the figures for `COC(=O)CCC(=O)Nc1ccc2c(c1O)C(=O)C1=C(O)[C@]3(O)C(=O)C(C(N)=O)=C(O)[C@@H](N(C)C)[C@@H]3C[C@@H]1C2` [IB] were greater than 4 µg/mL and greater than 4 µg/mL.
For `CN(C)c1cc(NC(=O)NC(=O)c2ccccc2)c(O)c2c1C[C@H]1C[C@H]3[C@H](N(C)C)C(O)=C(C(N)=O)C(=O)[C@@]3(O)C(O)=C1C2=O` [CH], the MIC in assay [1] (setting [3]) was less than 4 µg/mL; in assay [2] (setting [4]) it was greater than 4 µg/mL.
For `Cc1cnc(N)n1Cc1cc(N(C)C)c2c(c1O)C(=O)C1=C(O)[C@]3(O)C(=O)C(C(N)=O)=C(O)[C@@H](N(C)C)[C@@H]3C[C@@H]1C2` [drawing 3711], the MIC in assay [1] (setting [5]) is less than 4 µg/mL; in assay [2] (setting [6]), greater than 4 µg/mL.
In the case of `CC(C)CNCc1cc(N(C)C)c2c(c1O)C(=O)C1=C(O)[C@]3(O)C(=O)C(C(N)=O)=C(O)[C@@H](N(C)C)[C@@H]3C[C@@H]1C2` [drawing 3371], the “Antibiotic Activity Gram + (MIC)” value in assay [1] (gram positive bacteria) is “** (compounds with MIC less than or equal to 4 μg/ml are indicated with **)”. The “Antibiotic Activity Gram − (MIC)” value in assay [2] (gram negative bacteria) is reported as “** (compounds with MIC less than or equal to 4 μg/ml are indicated with **)”.
Turning to `CC(C)OC(=O)c1cccc(-c2ccc(O)c3c2C[C@H]2C[C@H]4[C@H](N(C)C)C(O)=C(C(N)=O)C(=O)[C@@]4(O)C(O)=C2C3=O)c1`, the MIC in assay [1] (setting [5]) and in assay [2] (setting [6]) was less than 4 µg/mL throughout.
On to `CCN(CC)Cc1cc(-c2ccoc2)c2c(c1O)C(=O)C1=C(O)[C@]3(O)C(=O)C(C(N)=O)=C(O)[C@@H](N(C)C)[C@@H]3C[C@@H]1C2`, for which the results for the MIC in assay [1] (setting [5]) and in assay [2] (setting [6]) were less than 4 µg/mL and greater than 4 µg/mL, respectively.
With `CN(C)[C@@H]1C(O)=C(C(N)=O)C(=O)[C@@]2(O)C(O)=C3C(=O)c4c(O)cccc4C(CSCc4ccccc4)[C@H]3[C@H](O)[C@@H]12` (stereo partly drawn), the MIC in assay [1] (setting [7]) and in assay [2] (setting [8]) was less than 4 µg/mL in each case.
In the case of `CN(C)[C@@H]1C(O)=C(C(N)=O)C(=O)[C@@]2(O)C(O)=C3C(=O)c4c(O)ccc(-c5ccc(NC(=O)c6ccno6)cc5)c4C[C@H]3C[C@@H]12` [IN], the results for the MIC in assay [1] (setting [3]) and in assay [2] (setting [4]) were less than 4 µg/mL and greater than 4 µg/mL, respectively.
As for `CCc1cc(CN2CCC(F)(F)CC2)c(O)c2c1C[C@H]1C[C@H]3[C@H](N(C)C)C(O)=C(C(N)=O)C(=O)[C@@]3(O)C(O)=C1C2=O` [drawing 3696], the “Antibiotic Activity Gram + (MIC)” value in assay [1] (gram positive bacteria) is listed as “** (compounds with MIC less than or equal to 4 μg/ml are indicated with **)”. For the same compound, the “Antibiotic Activity Gram − (MIC)” value in assay [2] (gram negative bacteria) is reported as “** (compounds with MIC less than or equal to 4 μg/ml are indicated with **)”.
For the compound `CCc1cc(C(C)(C)C)c(O)c2c1C[C@H]1C[C@H]3[C@H](N(C)C)C(O)=C(C(=O)NC(C)(C)C)C(=O)[C@@]3(O)C(O)=C1C2=O`, the MIC is less than 4 µg/mL in assay [1] (setting [5]) and greater than 4 µg/mL in assay [2] (setting [6]).
Regarding `CN(C)[C@@H]1C(O)=C(C(N)=O)C(=O)[C@@]2(O)C(O)=C3C(=O)c4c(O)ccc(C(=O)C(=O)N5CCOCC5)c4C[C@H]3C[C@@H]12`, the MIC is less than 4 µg/mL in assay [1] (setting [5]) and greater than 4 µg/mL in assay [2] (setting [6]).
Consider `CC(=O)Nc1cc(-c2ccccn2)c2c(c1O)C(=O)C1=C(O)[C@]3(O)C(=O)C(C(N)=O)=C(O)[C@@H](N(C)C)[C@@H]3C[C@@H]1C2`, for which the values for the MIC in assay [1] (setting [5]) and in assay [2] (setting [6]) were less than 4 µg/mL and greater than 4 µg/mL, respectively.
On the same counts, the results for `CN(C)[C@@H]1C(O)=C(C(N)=O)C(=O)[C@@]2(O)C(O)=C3C(=O)c4c(O)ccc(CNC(=O)c5ccccn5)c4C[C@H]3C[C@@H]12` are less than 4 µg/mL and greater than 4 µg/mL.
With `COc1ccc(C#Cc2ccc(O)c3c2C[C@H]2C[C@H]4[C@H](N(C)C)C(O)=C(C(N)=O)C(=O)[C@@]4(O)C(O)=C2C3=O)cc1`, the MIC in assay [1] (setting [7]) and in assay [2] (setting [8]) was less than 4 µg/mL throughout.
On to `CN(C)c1cc(-c2ccc(F)cc2F)c(O)c2c1C[C@H]1C[C@H]3[C@H](N(C)C)C(O)=C(C(N)=O)C(=O)[C@@]3(O)C(O)=C1C2=O`, for which the MIC in assay [1] (setting [7]) and in assay [2] (setting [8]) was less than 4 µg/mL in each case.
For the compound `COc1ccc(Cl)cc1-c1ccc(O)c2c1C[C@H]1C[C@H]3[C@H](N(C)C)C(O)=C(C(N)=O)C(=O)[C@@]3(O)C(O)=C1C2=O`, the MIC in assay [1] (setting [7]) and in assay [2] (setting [8]) was less than 4 µg/mL in each case.
